How the values were obtained:
[1] = molecular target: T1, geranylgeranyltransferase type-I (Rattus norvegicus) (UniProt P53610+Q04631); assay: Percentage in vitro inhibition of rat protein geranylgeranyltransferase type-I at 50 uM; format: protein-complex assay
[2] = molecular target: T2, Protein farnesyltransferase (Rattus norvegicus) (UniProt Q04631+Q02293); assay: Percentage in vitro inhibition of rat protein farnesyltransferase at 50 uM; format: protein-complex assay
[3] = tested on: Protein farnesyltransferase (Trypanosoma brucei); assay: Percentage in vitro inhibition of recombinant Trypanosoma brucei protein farnesyltransferase at 2 uM
[4] = tested on: Protein farnesyltransferase (Trypanosoma brucei); assay: Percentage in vitro inhibition of recombinant Trypanosoma brucei protein farnesyltransferase at 100 uM
[5] = molecular target: T2, Protein farnesyltransferase (Rattus norvegicus); assay: Percentage in vitro inhibition of rat protein farnesyltransferase at 100 uM; format: protein-complex assay
[6] = molecular target: T1, geranylgeranyltransferase type-I (Rattus norvegicus); assay: Percentage in vitro inhibition of rat protein geranylgeranyltransferase type-I at 100 uM; format: protein-complex assay
[7] = molecular target: T2, Protein farnesyltransferase (Rattus norvegicus); assay: Percentage in vitro inhibition of rat protein farnesyltransferase at 5 uM; format: protein-complex assay
[8] = tested on: Protein farnesyltransferase (Trypanosoma brucei); assay: Percentage in vitro inhibition of recombinant Trypanosoma brucei protein farnesyltransferase at 5 uM
[9] = molecular target: T1, geranylgeranyltransferase type-I (Rattus norvegicus); assay: Percentage in vitro inhibition of rat protein geranylgeranyltransferase type-I at 5 uM; format: protein-complex assay
[10] = tested on: Trypanosoma brucei; assay: In vitro dose required to inhibit growth of Trypanosoma brucei; format: functional; settings: read-out: ED50 (the source's name)
[11] = molecular target: T1, geranylgeranyltransferase type-I (Rattus norvegicus); assay: Percentage in vitro inhibition of rat protein geranylgeranyltransferase type-I at 2 uM; format: protein-complex assay
[12] = molecular target: T2, Protein farnesyltransferase (Rattus norvegicus); assay: Percentage in vitro inhibition of rat protein farnesyltransferase at 2 uM; format: protein-complex assay

Structure (SMILES) | inhibition [1] [%] | inhibition [2] [%] | inhibition [3] [%] | inhibition [4] [%] | inhibition [5] [%] | inhibition [6] [%] | also measured
CCN(CC)C1=NS(=O)(=O)C(C2CC(c3ccccc3C)=NO2)=C1c1ccc(OC)cc1 (stereo unspecified) | 0 | 22 | 2 | – | – | – | –
CCN(CC)C1=NS(=O)(=O)C(c2ccccc2)=C1c1ccc(OC)cc1 | – | – | – | 13 | 0 | 26 | –
CCN(CC)C1=NS(=O)(=O)C(C2CC(c3c(C)cccc3C)=NO2)=C1c1ccc(OC)cc1 (stereo unspecified) | 17 | 22 | 8 | – | – | – | –
CCN(CC)C1=NS(=O)(=O)C=C1c1ccc(OC)cc1 | – | – | – | – | – | – | inhibition [7]: 0%; inhibition [8]: 0%; inhibition [9]: 12%
CCN(CC)C1=NS(=O)(=O)C(Sc2ccccc2)=C1c1ccc(OC)cc1 | – | – | – | 62 | 5 | 17 | –
CCN(CC)C1=NS(=O)(=O)C(SC)=C1c1ccc(OC)cc1 | – | – | – | 7 | 5 | 36 | –
CCN(CC)C1=NS(=O)(=O)C(C2CC(c3ccc([N+](=O)[O-])cc3)=NO2)=C1c1ccc(OC)cc1 (stereo unspecified) | 8 | 18 | 2 | – | – | – | –
CCN(CC)C1=NS(=O)(=O)C(C2CC(c3c(C)cc(C)cc3C)=NO2)=C1c1ccc(OC)cc1 (stereo unspecified) | 25 | 21 | 50 | – | – | – | inhibition [7]: 0%; inhibition [8]: 66%; EC50 [10]: 10 µM; inhibition [9]: 15%
CCN(CC)C1=NS(=O)(=O)C(c2ccccn2)=C1c1ccc(OC)cc1 | – | – | – | 12 | 3 | 7 | –
CCN(CC)C1=NS(=O)(=O)C(C2CC(c3c(Cl)cccc3Cl)=NO2)=C1c1ccc(OC)cc1 (stereo unspecified) | 45 | 14 | 32 | – | – | – | –

Now from value to compound, other results behind:

inhibition [1] [%] | inhibition [2] [%] | inhibition [3] [%] | inhibition [4] [%] | inhibition [5] [%] | inhibition [6] [%] | Structure (SMILES) | also measured
7 | 2 | 28 | – | – | – | CCN(CC)C1=NS(=O)(=O)C(C2CC(c3c(C)c(Cl)c(C)c(Cl)c3C)=NO2)=C1c1ccc(OC)cc1 (stereo unspecified) | –
– | – | – | 29 | 5 | 25 | CCN(CC)C1=NS(=O)(=O)C(c2cn(S(=O)(=O)c3ccccc3)c3ccccc23)=C1c1ccc(OC)cc1 | –
20 | 8 | 0 | – | – | – | CCN(CC)C1=NS(=O)(=O)C(C2CC(c3ccc(Cl)cc3)=NO2)=C1c1ccc(OC)cc1 (stereo unspecified) | –
11 | 8 | 0 | – | – | – | CCN(CC)C1=NS(=O)(=O)C(c2cc(-c3c(C)cc(C)cc3C)no2)=C1c1ccc(OC)cc1 | –
– | – | – | 52 | 6 | 20 | CCN(CC)C1=NS(=O)(=O)C(SC2CCCCC2)=C1c1ccc(OC)cc1 | –
– | 7 | 13 | – | – | – | CCN(CC)C1=NS(=O)(=O)C(C2CC(c3c(C)c(C)c(C)c(C)c3C)=NO2)=C1c1ccc(OC)cc1 (stereo unspecified) | –
– | – | – | 25 | 0 | 28 | CCN(CC)C1=NS(=O)(=O)C(SC/C=C(\C)CC/C=C(/C)CCC=C(C)C)=C1c1ccc(OC)cc1 | –
– | – | 0 | – | – | – | CCN(CC)C1=NS(=O)(=O)C(C#Cc2ccccc2)=C1c1ccc(OC)cc1 | inhibition [11]: 7%; inhibition [12]: 2%
12 | 9 | 10 | – | – | – | CCOC1C(c2c(C)cc(C)cc2C)=NOC1C1=C(c2ccc(OC)cc2)C(N(CC)CC)=NS1(=O)=O (stereo unspecified) | –
– | – | – | 43 | 27 | 56 | CCN(CC)C1=NS(=O)(=O)C(C)=C1c1ccc(OC)cc1 | –
17 | 13 | 8 | – | – | – | CCN(CC)C1=NS(=O)(=O)C(C2CC(c3ccc(OC)cc3)=NO2)=C1c1ccc(OC)cc1 (stereo unspecified) | –
